Assay results: publication PMC8310135 (Viruses, 2021)
Structures can show the parent of a compound that is named as a salt. Where two headings read alike, the source gives them in different places.

Columns and labels:
Huh7 cells = conditions: for CC50: human
rLUJV/ZsG = experiment: microbe, parasite or virus in culture; type: cell-based, Lujo virus; conditions: for activity at 0.05 µM / activity at 0.5 µM / activity at 5 µM: Huh-7, read-out: Relative ZsG (%) Mean
in vitro = conditions: human; for CC50: CC50 (50% cell cytotoxicity concentration)
[1] = Mammarenavirus lujoense, Huh-7, read-out: EC50 (concentration inhibiting ZsG expression by 50%)
[2] = Mammarenavirus lujoense, 500 nM
[3] = Mammarenavirus lujoense, 5000 nM
[4] = read-out: EC50 (concentration inhibiting ZsG expression by 50%)

Row | SMILES | Cell Viability (%) Mean (Huh7 cells; 50 nM) [%] | Cell Viability (%) Mean (Huh7 cells; 500 nM) [%] | Cell Viability (%) Mean (Huh7 cells; 5000 nM) [%] | Relative ZsG (%) Mean (rLUJV/ZsG; 50 nM) [%] | Relative ZsG (%) Mean (rLUJV/ZsG; 500 nM) [%] | Relative ZsG (%) Mean (rLUJV/ZsG; 5000 nM) [%] | CC50 (Huh7 cells) [nM] | viability at 0.05 µM (in vitro) [%] | viability at 0.5 µM (in vitro) [%] | viability at 5 µM (in vitro) [%] | CC50 (in vitro) [nM] | SI (selectivity index, CC50 divided by EC50) (rLUJV/ZsG) | EC50 (rLUJV/ZsG; [1]) [nM] | activity at 0.05 µM (rLUJV/ZsG; Mammarenavirus lujoense, 50 nM) [%] | activity at 0.5 µM (rLUJV/ZsG; [2]) [%] | activity at 5 µM (rLUJV/ZsG; [3]) [%] | EC50 (rLUJV/ZsG; [4]) [nM]
1 | C#C[C@@]1(O)[C@H](O)[C@@H](CO)O[C@H]1n1ccc2c(N)ncnc21 [NITD008] | 99 | 96 | 97 | 122 | 110 | 136 |  |  |  |  |  |  |  |  |  |  | 
2 | CCCCCCCCCCCCCCCCn1cc[n+](Cc2ccccc2)c1C.[I-] [NH125] | 104 | 63 | 1 | 60 | 28 | 2 |  |  |  |  |  |  |  |  |  |  | 
3 | COc1c(C)c2c(c(O)c1C/C=C(\C)CCC(=O)O)C(=O)OC2 [Mycophenolic acid (MPA), Mycophenolic acid] |  |  |  |  |  |  | 2040 | 132 | 100 | 48 | 2000 ± 400 | 8.6 | 240 ± 100 | 72 | 7 | 2 | 238 ± 97
4 | CC(C)OC(=O)[C@H](C)N[P@@](=O)(OC[C@H]1O[C@@H](n2ccc(=O)[nH]c2=O)[C@](C)(F)[C@@H]1O)Oc1ccccc1 [PSI-7976] | 94 | 99 | 107 | 96 | 80 | 124 |  |  |  |  |  |  |  |  |  |  | 
5 | COC1=CC(c2cc3ccccc3[nH]2)=N/C1=C\c1[nH]c(C)cc1C [Obatoclax] |  |  |  |  |  |  | 1500 ± 332 | 130 | 25 | 2 | 1500 ± 330 | 4.2 | 360 ± 100 | 36 | 4 | 10 | 355 ± 105
6 | Cc1c(-c2ccc(O)cc2)n(Cc2ccc(OCCN3CCCCCC3)cc2)c2ccc(O)cc12 [Bazedoxifene HCL] |  |  |  |  |  |  | 6680 ± 2080 | 141 | 147 | 84 | 6680 ± 2080 | 3.9 | 1720 ± 790 | 110 | 103 | 2 | 1720 ± 481
7 | [N-]=[N+]=N[C@]1(CO)O[C@@H](n2ccc(N)nc2=O)[C@@H](O)[C@@H]1O [R09187] | 99 | 98 | 102 | 116 | 122 | 88 |  |  |  |  |  |  |  |  |  |  | 
8 | Cl.Fc1ccc([C@@H]2CCNC[C@H]2COc2ccc3c(c2)OCO3)cc1 [Paroxetine HCl] | 138 | 145 | 110 | 93 | 83 | 48 |  |  |  |  |  |  |  |  |  |  | 
9 | Nc1cccc(-c2cc3c(Oc4cccc(O)c4)ncnc3[nH]2)c1 [TWS119] | 135 | 124 | 36 | 74 | 74 | 13 |  |  |  |  |  |  |  |  |  |  | 
10 | COc1ccc(-n2cnc3cc(NCc4ccc(C(C)C)cc4)ccc32)cc1 [ST-193] | 105 | 98 | 101 | 107 | 102 | 91 |  |  |  |  |  |  |  |  |  |  | 
11 | CC(C)C(=O)OC[C@H]1O[C@@H](n2ccc(N)nc2=O)[C@](C)(F)[C@@H]1OC(=O)C(C)C [R-7128] | 100 | 98 | 103 | 133 | 80 | 126 |  |  |  |  |  |  |  |  |  |  | 
12 | C[C@@]1(O)[C@H](O)[C@@H](CO)O[C@H]1n1ccc2c(N)ncnc21 [7-DMA] | 98 | 103 | 113 | 96 | 95 | 92 |  |  |  |  |  |  |  |  |  |  | 
13 | CN(C)C/C=C/C(=O)Nc1cc2c(Nc3ccc(F)c(Cl)c3)ncnc2cc1O[C@H]1CCOC1 [Afatinib] |  |  |  |  |  |  | 7640 ± 699 | 126 | 136 | 60 | 7640 ± 700 | 3.4 | 2260 ± 730 | 76 | 74 | 2 | 2260 ± 734
14 | [N-]=[N+]=N[C@]1(CO)O[C@@H](n2ccc(N)nc2=O)[C@H](O)[C@@H]1O [R-1479] | 104 | 101 | 96 | 118 | 100 | 103 |  |  |  |  |  |  |  |  |  |  | 
15 | C[C@@]1(F)[C@H](O)[C@@H](CO)O[C@H]1n1ccc(N)nc1=O [PSI-6130] | 100 | 96 | 99 | 149 | 90 | 114 |  |  |  |  |  |  |  |  |  |  | 
16 | C[C@H](Cn1cnc2c(N)ncnc21)OCP(=O)(O)O [Tenofivir] | 101 | 100 | 100 | 114 | 138 | 96 |  |  |  |  |  |  |  |  |  |  | 
17 | Cc1ccc(Nc2nccc(N(C)c3ccc4c(C)n(C)nc4c3)n2)cc1S(N)(=O)=O.Cl [Pazopanib HCl] | 134 | 116 | 54 | 77 | 59 | 24 |  |  |  |  |  |  |  |  |  |  | 
18 | C[C@@]1(F)[C@H](O)[C@@H](CO)O[C@H]1n1ccc(=O)[nH]c1=O [PSI-6206] | 103 | 96 | 104 | 141 | 87 | 128 |  |  |  |  |  |  |  |  |  |  | 
19 | N#Cc1cn([C@@H]2O[C@H](CO)[C@@H](O)[C@H]2O)c2ncnc(N)c12 [Toyocamycin] |  |  |  |  |  |  |  | 97 | 64 | 23 |  |  |  | 69 | 12 | 7 | 
20 | COc1cc2ncnc(Nc3cccc(Cl)c3)c2cc1OC [Tyrphostin AG1478] |  |  |  |  |  |  |  | 120 | 101 | 111 |  |  |  | 80 | 73 | 87 | 
21 | COc1ccc2cc1Oc1ccc(cc1)C[C@H]1c3cc(c(OC)cc3CCN1C)Oc1c(OC)c(OC)cc3c1[C@H](C2)N(C)CC3 [Tetrandrine] |  |  |  |  |  |  |  | 115 | 95 | 1 |  |  |  | 95 | 75 | 2 | 
22 | CN(C)C(=O)C(CCN1CCC(O)(c2ccc(Cl)cc2)CC1)(c1ccccc1)c1ccccc1 [Loperamide HCL] |  |  |  |  |  |  |  | 99 | 104 | 85 | 12300 ± 3570 | 3.3 | 3670 ± 990 | 104 | 81 | 1 | 3670 ± 986
23 | CO[C@@H]1[C@H](O)[C@@H](CO)O[C@H]1n1ccc(N)nc1=O [2ʹ-O-methylcytidine] |  |  |  |  |  |  |  | 98 | 103 | 100 |  |  |  | 118 | 127 | 114 | 
